The subject of one assay is hIL17. As to the kind of experiment: IL-17 release from differentiated primary human T-cells (IL-17A HTRF assay). The assay is classed as cell-based. The conditions noted are these: inhibition of IL-17A levels; primary human CD4+ T cells differentiated into Th17 cells, 46-hour incubation. As for the experimental part:
D. IL-17 Release from Differentiated Primary Human T-Cells and Cell Viability
Primary human cryopreserved CD4+ T Cells (Lonza, donor #0000402103) were plated in Lymphocyte Growth Medium-3 (LGM-3, Lonza) according to the manufacturer's recommendations, and allowed to recover for approximately 3 hours at 37° C. with 5% CO2 in a humidified atmosphere. After the recovery step, cells were collected by centrifugation and re-plated in 96-well plates at a density of ˜140,000 cells per well in LGM-3 medium that contained DMSO (vehicle) or test compound (2-500 nM or 4-1000 nM concentration range). Triplicate wells were plated for each test condition. DMSO (final concentration ≤0.1%) was used as the vehicle. Immediately after plating, CD4+ T cells were activated by adding Dynabeads Human T-Activator CD3/CD28 (Life Technologies; bead-to-cell ratio of 1:2.5) and differentiated into Th17 cells by adding a mixture of the following cytokines: transforming growth factor-β (TGF-β, 5 ng/mL), IL-6 (20 ng/mL), IL-23 (20 ng/mL), and […] (10 ng/mL). Undifferentiated control cells received only cytokine IL-2 (50 ng/mL). All human recombinant cytokines were purchased from R&D Systems. Following a 46-hour incubation at 37° C. with 5% CO2 in a humidified atmosphere, the plates were centrifuged for 3 minutes at 250×g, and half of the supernatant was transferred to a new plate to be used in the IL-17A assay (see below). Cell viability was assessed in the original plate using the CyQuant Direct Assay (Life Technologies). CyQuant values from test compound samples were normalized to those from DMSO-treated samples. The concentration of IL-17A in the supernatant was measured using the Homogeneous Time-Resolved Fluorescence (HTRF) assay (Cisbio Bioassays) according to the manufacturer's protocol. The assay was performed at room temperature in low volume, solid white 384-well plates (Greiner Bio-One). Samples and standards (serially-diluted human recombinant IL-17A (0 to 5,000 pg/mL concentration range; Cisbio Bioassays) were incubated with the anti-human IL-17A antibody conjugate for 16 hours and fluorescence was measured using a Pherastar FS microplate reader (BMG Labtech) in the HTRF mode (excitation at 337 nm and emission at 665 nm and 620 nm). IL-17A concentrations were assessed in duplicate aliquots of supernatant from each well resulting in a total of six readings per test condition. The 665 nm/620 nm signal ratio was calculated and the concentration of IL-17A in each sample was determined by interpolation from the standard curve. IL-17A values from test compound samples were normalized to those from DMSO-treated samples. Data were analyzed using GraphPad Prism version 6.00 for Windows (GraphPad Software, La Jolla Calif. USA). A non-linear regression analysis with log (inhibitor) vs. normalized response using a variable slope was applied to fit the data and determine the IC50 values for inhibition of IL-17A levels and cell viability.

For the next assay, the target named is T1, human RORγ (Homo sapiens, UniProt P51449).
T1 sequence (P51449 269-508 limits assumed): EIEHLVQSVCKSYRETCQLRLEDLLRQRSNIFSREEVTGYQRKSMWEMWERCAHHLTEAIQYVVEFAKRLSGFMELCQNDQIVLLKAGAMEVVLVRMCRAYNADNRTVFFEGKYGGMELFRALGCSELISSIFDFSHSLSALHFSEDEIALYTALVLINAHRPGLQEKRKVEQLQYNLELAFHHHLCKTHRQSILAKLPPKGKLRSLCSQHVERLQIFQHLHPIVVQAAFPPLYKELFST
As to the kind of experiment: RORγ assay (GAL4-RORγ hybrid luciferase reporter, inverse-agonist activity). Format: cell-based. The conditions noted are these: GAL4-RORγ hybrid reporter cells, 23 hours. The text has this: C. RORγ Assay and Cell Viability
The RORγ assay system was purchased from Indigo Biosciences. This nuclear receptor assay utilizes a human cell line that has been engineered to express a hybrid form of the Human RAR-related Orphan Receptor Gamma (RORγ) at high levels. The N-terminal DNA binding domain (DBD) of the native RORγ receptor was substituted with the yeast GAL4-DBD to generate the GAL4-RORγ hybrid nuclear receptor. The reporter cell line is transfected with a plasmid that encodes the beetle luciferase gene under the control of the GAL4 upstream activating sequence (UAS). GAL4 binds to the UAS and increases transcription of downstream target genes. […] To assess the RORγ inverse-agonist activity of the test compounds, reporter cells were plated in white 96-well plates in triplicate and were treated with DMSO (vehicle) or test compound (concentration ranges of 0.4-200 nM or 2-1000 nM) at 37° C. with 5% CO2 in a humidified atmosphere for 23 hours. After this incubation, luciferin was added to the wells and luciferase activity was determined by measuring the luminescence signal using a BMG Pherastar microplate reader. Viability was determined using the Live Cell Multiplex Assay (Indigo Biosciences). Values from test compound samples were normalized to those from DMSO-treated samples. Data were analyzed using GraphPad Prism version 6.00 for Windows (GraphPad Software, La Jolla Calif. USA). A non-linear regression analysis with log (inhibitor) vs. normalized response using a variable slope was applied to fit the data and determine the IC50 values for inhibition of RORγ and cell viability.

For a further assay, the system named is NRF2. As to the kind of experiment: AREc32 luciferase reporter assay. Format: cell-based, human. Conditions: EC2×: concentration required to increase GST ARE Luciferase reporter activity by 2-fold; AREc32 cells, 19 hours. The text has this:
B. AREc32 Luciferase Reporter Assay
The AREc32 luciferase reporter assay allows for quantitative assessment of the endogenous activity of the Nrf2 transcription factor in cultured mammalian cells. AREc32 cells are derived from MCF-7 human breast carcinoma cells that were stably transfected with a reporter construct that contains the firefly luciferase gene located downstream of eight copies of the rat GSTA2 antioxidant response element (ARE) sequence (Wang et al., 2006; CXR Biosciences). Active NRF2 binds to the ARE sequences and increases expression of the firefly luciferase gene. To assess the NRF2-activating potential of the test compounds, AREc32 cells were plated in black 96-well plates at a density of 20,000 cells per well in triplicate in DMEM+10% FBS+0.8 mg/mL Geneticin and incubated at 37° C. with 5% CO2 in a humidified atmosphere. The next day, cells were treated with DMSO (vehicle) or test compound (concentration ranges of 0.4-200 nM or 2-1000 nM) for 19 hours. Luciferase activity was determined using the ONE-Glo Luciferase assay (Promega). The luminescence signal was measured on a BMG Pherastar microplate reader. The mean luminescence value from test compound-treated wells was normalized to that from DMSO-treated wells and was represented as fold-induction. Data were analyzed using GraphPad Prism version 6.00 for Windows, GraphPad Software, La Jolla Calif. USA. A non-linear regression curve with log (agonist) vs. response using a variable slope was used to fit the data. Where applicable, a maximum threshold value of 50-fold over DMSO was set. EC2× values were interpolated from the curve. EC2× corresponds to the concentration of test compound required to increase GST ARE Luciferase reporter activity by 2-fold.

For assay [1], the system named is IFNγ-induced Nitric Oxide production. As to the kind of experiment: Nitric oxide production assay in RAW 264.7 mouse macrophages. Format: cell-based. The conditions noted are these: RAW264.7, suppression of IFNγ-induced NO production normalized to cell viability (WST-1), RAW 264.7, 24 hours IFNγ. As for the experimental part:
A. Nitric Oxide Production Assay and Cell Viability
RAW 264.7 mouse macrophages were plated in 96-well plates at a density of 30,000 cells per well in triplicate in RPMI 1640+0.5% FBS and incubated at 37° C. with 5% CO2 in a humidified atmosphere. The next day, cells were pre-treated with DMSO (vehicle) or test compound (concentration ranges of 0.4-200 nM or 2-1000 nM) for 2 hours and then treated with recombinant mouse IFNγ (R&D Systems) for 24 hours. Nitric oxide concentration in media was determined using the Griess reagent system (Promega). Cell viability was determined using WST-1 reagent (Roche). Values from test compound samples were normalized to those from DMSO/IFNγ-treated samples. IC50 values were determined based on the suppression of IFNγ-induced Nitric Oxide production normalized to cell viability.

What is called IC50 is the concentration that gives 50% inhibition. High values mean weaker potency in that assay, low ones greater potency in that assay.

Bounds are passed on as bounds.

Regarding `COC(=O)[C@]12CCC(C)(C)C[C@H]1[C@H]1C(=O)C=C3[C@@]4(C)C=C(C#N)C(=O)[C@@H](C)[C@@H]4CC[C@@]3(C)[C@]1(C)CC2` [Comparison Compound #1, reference compound], the IC50 with hIL17 turned out to be 0.025 µM; on human RORγ, 0.127 µM; in assay [1], 0.0012 µM. Besides, in the assay with NRF2, the “EC2x: concentration giving 2-fold induction of ARE luciferase reporter” value was 11 nM.

With `CC1(C)CC[C@]2(C(=O)NCC(F)(F)F)CC[C@]3(C)[C@H](C(=O)C=C4[C@@]5(C)C=C(C#N)C(=O)C(C)(C)[C@@H]5CC[C@]43C)[C@@H]2C1` [Comparison Compound #2, reference compound], the results for the IC50 (with hIL17; at human RORγ; in assay [1]) were 0.04 µM, 0.104 µM and 0.0045 µM, respectively. In addition, the “EC2x: concentration giving 2-fold induction of ARE luciferase reporter” value with NRF2 came out at 53 nM.

Consider `CCNC(=O)[C@]12CCC(C)(C)C[C@H]1[C@H]1C(=O)C=C3[C@@]4(C)C=C(C#N)C(=O)C(C)(C)[C@@H]4CC[C@@]3(C)[C@]1(C)CC2` [Comparison Compound #3, reference compound], for which the results for the IC50 (with hIL17; at human RORγ; in assay [1]) were 0.081 µM, 0.204 µM and 0.0034 µM, respectively. Moreover, in the assay on NRF2, the “EC2x: concentration giving 2-fold induction of ARE luciferase reporter” value is given as 32 nM.

As for `C[C@@H]1C(=O)C(C#N)=C[C@]2(C)C3=CC(=O)[C@@H]4[C@@H]5CC(C)(C)CC[C@]5(NC(=O)C(C)(F)F)CC[C@@]4(C)[C@]3(C)CC[C@@H]12` [Comparison Compound #4, reference compound], the IC50 with hIL17 came out at 0.038 µM; at human RORγ, 0.177 µM; in assay [1] it was 0.0006 µM. The “EC2x: concentration giving 2-fold induction of ARE luciferase reporter” value in the assay on NRF2 was 11 nM.

In the case of `COC(=O)[C@]12CCC(C)(C)C[C@H]1[C@@]1(O)C(=O)C=C3[C@@]4(C)C=C(C#N)C(=O)C(C)(C)[C@@H]4CC[C@@]3(C)[C@]1(C)CC2` [Comparison Compound #5, reference compound], the figures for the IC50 (in the assay on hIL17; at human RORγ; in assay [1]) were 0.015 µM, 0.135 µM and 0.0016 µM, respectively. For the same compound, the “EC2x: concentration giving 2-fold induction of ARE luciferase reporter” value in the assay on NRF2 is 2 nM.

On to `CC1(C)CC[C@@]23CC[C@@]4(C)[C@]5(C)CC[C@H]6C(C)(C)C(=O)C(C#N)=C[C@]6(C)C5=CC(=O)[C@]4(OC2=O)[C@@H]3C1` [Comparison Compound #6, reference compound], for which the figures for the IC50 (in the assay on hIL17; at human RORγ; in assay [1]) were 0.015 µM, 0.159 µM and 0.0007 µM, respectively. Moreover, in the assay on NRF2, the “EC2x: concentration giving 2-fold induction of ARE luciferase reporter” value is on record as 2 nM.

`COC(=O)N[C@]12CCC(C)(C)C[C@H]1[C@H]1C(=O)C=C3[C@@]4(C)C=C(C#N)C(=O)C(C)(C)[C@@H]4CC[C@@]3(C)[C@]1(C)CC2` [Comparison Compound #7, reference compound]: the IC50 came to 0.027 µM in the assay on hIL17, 0.371 µM at human RORγ and 0.0024 µM in assay [1]. Moreover, in the assay with NRF2, the “EC2x: concentration giving 2-fold induction of ARE luciferase reporter” value is 20 nM.

On to `Cc1nnc([C@]23CCC(C)(C)C[C@H]2[C@H]2C(=O)C=C4[C@@]5(C)C=C(C#N)C(=O)C(C)(C)[C@@H]5CC[C@@]4(C)[C@]2(C)CC3)o1` [Comparison Compound #8, reference compound], for which the figures for the IC50 (in the assay with hIL17; on human RORγ; in assay [1]) were 0.032 µM, 0.222 µM and 0.002 µM, respectively. Further, in the assay with NRF2, the “EC2x: concentration giving 2-fold induction of ARE luciferase reporter” value is listed as 15 nM.

On to `CCNC(=O)[C@]12CCC(C)(C)C[C@H]1[C@H]1C(=O)C=C3[C@@]4(C)C=C(C#N)C(=O)[C@@](C)(CO)[C@@H]4CC[C@@]3(C)[C@]1(C)CC2` [Compound T25, (4aS,6aR,6bS,8aR,9R,12aS,14aR,14bS)-11-cyano-N-ethyl-9-(hydroxymethyl)-2,2,6a,6b,9,12a-hexamethyl-10,14-dioxo-1,3,4,5,6,6a,6b,7,8,8a,9,10,12a,14,14a,14b-hexadecahydropicene-4a(2H)-carboxamide], for which the IC50 was found to be 0.067 µM in the assay on hIL17 and 0.016 µM in assay [1]. In addition, in the assay with NRF2, the “EC2x: concentration giving 2-fold induction of ARE luciferase reporter” value worked out at 131 nM.

Regarding `CN(C)C(=O)[C@]1(C)C(=O)C(C#N)=C[C@]2(C)C3=CC(=O)[C@]45OC(=O)[C@@]6(CCC(C)(C)C[C@H]64)CC[C@@]5(C)[C@]3(C)CC[C@@H]12` [Compound T36, (4S,4aR,6aR,6bS,8aS,12aR,12bS,14bS)-2-cyano-N,N,4,6a,6b, 11,11,14b-octamethyl-3,13,16-trioxo-4,4a,5,6,6a,6b,7,8,10,11,12,12a,13,14b-tetradecahydro-3H,9H-12b,8a-(epoxymethano)picene-4-carboxamide], the IC50 with hIL17 is 0.126 µM; in assay [1] it was above 1 µM. In the assay with NRF2, the “EC2x: concentration giving 2-fold induction of ARE luciferase reporter” value was above 1000 nM.

For the origin of these results see patent US11584775B2, “C4-modified oleanolic acid derivatives for inhibition of IL-17 and other uses” (REATA PHARMACEUTICALS, INC., priority 2015, dated 2023).
